{"source": "BindingDB's records for doi:10.7270/Q2V1236D", "about": "(Burnham Center For Chemical Genomics, 2009)", "data": [{"target": "his6-Siah1 (aa 81-282) (Homo sapiens, UniProt Q8IUQ4)", "sequence (Q8IUQ4 whole entry, looked up, the tested form may be a part)": "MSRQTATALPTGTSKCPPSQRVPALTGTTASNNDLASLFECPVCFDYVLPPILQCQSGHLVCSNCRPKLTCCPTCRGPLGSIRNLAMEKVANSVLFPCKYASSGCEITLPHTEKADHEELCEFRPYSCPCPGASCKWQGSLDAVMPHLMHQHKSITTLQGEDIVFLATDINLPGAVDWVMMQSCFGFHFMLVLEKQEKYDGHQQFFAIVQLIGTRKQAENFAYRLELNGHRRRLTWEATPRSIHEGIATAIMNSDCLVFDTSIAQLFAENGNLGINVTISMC", "assay": "Siah-1 binding antagonists, dose response, biochemical, TR-FRET (AID 2141)", "units": {"IC50": "µM"}, "values": [{"molecule": "C[N+]1(CCNC(=O)CN=O)CCCCC1", "IC50": 130}, {"molecule": "CCOC(=O)C1(C)CC(=Nc2ccc(O)cc2)C(=O)N1c1ccc(O)cc1", "note": "(stereo not given)", "IC50": 50.7}, {"molecule": "O=C(Nc1ccc(Br)cc1)c1ccc(-n2c(O)c3c(c2O)CC=CC3)cc1", "note": "[4-[1,3-bis(oxidanylidene)-3a,4,7,7a-tetrahydroisoindol-2-yl]-N-(4-bromophenyl)benzamide]", "IC50": 4.27}, {"molecule": "CC1(C)OC(C)(C)C(=CNc2ccc(O)cc2)C1=O", "note": "[4-[(4-hydroxyanilino)methylene]-2,2,5,5-tetramethyldihydro-3(2H)-furanone]", "IC50": 2.93}, {"molecule": "CC(C)(C)c1cc(-c2cs/c(=N\\c3ccccc3)n2Cc2ccc(C(=O)O)cc2)cc(C(C)(C)C)c1O", "note": "[4-[[4-(3,5-ditert-butyl-4-oxidanyl-phenyl)-2-phenylazanyl-1,3-thiazol-3-ium-3-yl]methyl]benzoic acid;bromide]", "IC50": 6.69}]}]}
